Like-named read-outs stand apart in the source and are kept apart here.
Assays:
RPMI-8402 cells [1] = assay: Colony formation in soft agar; format: cell-based, human; conditions: 30 days
Protocol: Colony formation in soft agar was conducted in 12-well plates, with the bottom layer containing 750 μL of 0.8% agarose in 10% FBS/cell media and the top layer containing 0.4% agarose (SEM cells or RPMI-8402 cells). LLC0424 was added every 3 days to the liquid layer on top agarose to reach a final concentration of 2 μM. At the 30 days of treatment, the cells were stained with iodonitrotetrazolium chloride (INT) by adding 500 μL 1× INT PBS solution into each well. After the staining, images were taken using brightfield microscope and plate scan was conducted using Epson Perfection V700 Photo. Colony number counting was performed using ImageJ.

SEM cells [2] = assay: RNA-seq global transcriptome analysis; format: cell-based, human; conditions: 14 days of treatment, versus DMSO
Protocol: NSD2 is the primary methyltransferase that transfers dimethyl to H3K36 in ALL with NSD2 gain-of-function mutation. Therefore, the effects of LLC0424 on H3K36me2 was evaluated in SEM and RPMI-8402 cells. […] Meanwhile, LLC0424 treatment also led to downregulation of H3K36Me2 in RPMI-8402 cells within 24 h (Figure 6B). […] We also conducted a colony formation assay to evaluate the effect of LLC0424 on the stem cell-like property of the leukemia cells. […] As LLC0424 leads to strong degradation of both NSD2-L and NSD2-S, the phenotypic changes upon LLC0424 treatment result from complete inactivation of NSD2 activity, including adaptor-like function of NSD2-S and SET-domain dependent enzymatic function of NSD2-L. The specific contributions of NSD2 isoforms warrant future investigation. To characterize the genes affected by LLC0424 treatment, we performed global transcriptome analysis of SEM cells treated by DMSO, LLC0424, or LLC0424N. […]
Total RNA was isolated from cells using the miRNeasy Mini Kit (Qiagen). […] Paired-end libraries were sequenced with the Illumina HiSeq 2500 (2 × 100 nucleotide read length) with sequence coverage to 15–20 M paired reads. […] Then we performed the analysis in R. First, EdgeR (edgeR_3.39.6) was used to perform read counts normalization and filtering (counts >10) and then Limma-Voom (limma_3.53.10) was used to analyze differential expression.

[3] = PK parameters in rats (LC/MS/MS); conditions: rat, in vivo; for MRT last: read-out: MRT (0-t)
From the text: Table S4. PK parameters of LLC0424 in rats a Route/dose T1/2 Tmax Cmax AUC(0-t) CL MRT Vss F(%) […]
aDetermined using LC/MS/MS. T1/2: elimination half-life; Tmax: time for maximum concentration; Cmax: maximum concentration; AUC: the area under the curve; CL: clearance; MRT: mean residence time; Vss: volume of distribution; F: oral

SEM cells [4] = assay: Proliferation assay (CellTiter-Glo, 9 days), SEM; format: cell-based, human; conditions: 5 μM (Fig 6E) or 2 μM (Fig S4A)
Protocol: (§1) 2 × 10^3 cells per well were seeded in 5 replicates into 96-well plates and treated with 5 μM of the compound. Every 4 days, we added the compound with 5 μL of the 20* compound-containing mixture, reaching 1*concentration. Cell proliferation was evaluated by CellTiter-Glo assay (Promega).

RPMI-8402 cells [5] = assay: Proliferation assay (CellTiter-Glo, 9 days), RPMI-8402; format: cell-based, human; conditions: 5 μM (Fig 6E) or 2 μM (Fig S4A)
Protocol: as §1

[6] = compared to DMSO or LLC0424N-treated group

For `O=C1CCC(N2C(=O)c3ccc(N4CCC(NC(=O)c5ccc(NC(=O)c6ccc(CN(C(=O)c7ccc8c(c7)OCC(=O)N8)C7CC7)cc6)cc5)CC4)cc3C2=O)C(=O)N1` (stereo not shown) [compound 10l, N-Cyclopropyl-N-(4-((4-((1-(2-(2,6-dioxopiperidin-3-yl)-1,3-dioxoisoindolin-5-yl)piperidin-4-yl)carbamoyl)phenyl)carbamoyl)benzyl)-3-oxo-3,4-dihydro-2H-benzo[b][1,4]oxazine-7-carboxamide], the “formation of cell colonies” value (RPMI-8402 cells [1]; 2 μM, INT staining) was “significantly reduced the formation of cell colonies”, the colony area (RPMI-8402 cells [1]; [6]) was “obviously smaller colonies” and the colony numbers (RPMI-8402 cells [1]; [6]) was “significantly fewer cell colonies”. For the same compound, the “differentially expressed genes (transcriptome)” value (SEM cells [2]) was “over 326”, the AUC(0-t) ([3]; iv, i.v. 2 mg/kg) was 4320 ng·h/mL and the Cmax ([3]; iv, i.v. 2 mg/kg) was 7320 ng/mL. It also gave a Tmax ([3]; iv, i.v. 2 mg/kg) of 0.083 h, a clearance ([3]; iv, i.v. 2 mg/kg) of 7.58 mL/min/kg and a half-life ([3]; iv, i.v. 2 mg/kg) of 2.1 h. For the same compound, the MRT last ([3]; iv, i.v. 2 mg/kg) was 1.28 h, the Vd ([3]; iv, i.v. 2 mg/kg, read-out: Vss) was 0.763 L/kg and the AUC(0-t) ([3]; oral 10 mg/kg) was 777 ng·h/mL. It also gave a Cmax ([3]; oral 10 mg/kg) of 162 ng/mL, a Tmax ([3]; oral 10 mg/kg) of 2 h and a bioavailability ([3]; oral 10 mg/kg) of 3.67%. For the same compound, the half-life ([3]; oral 10 mg/kg) was 1.52 h, the MRT last ([3]; oral 10 mg/kg) was 3.18 h and the “cell growth on treatment for 9 days” value (SEM cells [4]) was “significantly inhibited”. For the same compound, the “cell growth on treatment for 9 days” value (RPMI-8402 cells [5]) was “significantly inhibited”.

Source: publication PMC11094793, “Discovery of LLC0424 as a Potent and Selective in Vivo NSD2 PROTAC Degrader” (Journal of Medicinal Chemistry, 2024)
